{"source": "patent US8329703B2", "about": "“Pyrazole compounds” (XTL Biopharmaceuticals Ltd., priority 2005, dated 2012)", "data": [{"system": "HCV Replicon (HCV IRES driven luciferase reporter) in Huh-Luc-Neo cells", "assay": "HCV Replicon Luciferase Assay", "type": "cell-based", "conditions": "Hepatitis C virus, 48 h, Huh-Luc-Neo cells, no unit printed in table (b301 gives IC50s in μM), read-out: Luciferase IC50", "protocol": "(§1) The identification of inhibitors of HCV replication and/or proliferation has been facilitated by the development of a cell based system to study HCV replication and assay for HCV inhibitors. Inhibition of HCV replication may be performed using the HCV Replicon Assay developed in the laboratories of Bartenschlager (Lohman et al, Science 285, 110-113, 1999) and Rice (Blight et al, Science 290, 1972-1974, 2000). The assay is performed using the Huh-Luc-Neo cell line (Lohman et al, Science 285, 110-113, 1999). Huh-Luc-Neo cells are a human hepatoma cell line (Huh-7) stably expressing a bi-cistronic subgenomic replicon containing the HCV IRES in which the […] of HCV had been deleted and replaced by a construct containing sequences coding for the firefly luciferase reporter gene, the neomycin selectable marker and the EMCV IRES to direct expression of a truncated HCV genome expressing the […] NS3, NS4A, NS4B, NS5A, and NS5B. HCV targets through which inhibitors could act to inhibit replication include the NS3 protease, the helicase/ATPase, NS5A, the NS5B-RNA dependent RNA polymerase, and the HCV IRES.\n(§2) Expression of HCV IRES driven luciferase reporter activity and HCV RNA is measured to obtain indirect and direct measures of replication of HCV RNA respectively. Inhibitors of HCV replication and/or proliferation are determined by initially identifying molecules that inhibit expression of the HCV IRES driven luciferase reporter in this HCV Replicon Luciferase Assay. Cell viability assays and control cell based luciferase assays are then run on hits identified in the HCV Replicon Luciferase Assay to eliminate cytoxic compounds and non-specific compounds which act by inhibiting the luciferase enzyme.\n(§3) Day 0, Cell Seeding and Compound Treatment: Huh-Luc-Neo Cells are seeded at 25,000/well in an opaque-walled 96 plate with Growth Medium (DMEM phenol red free+PS+2 mM glutamine; 100 μl/well). The compounds to be tested are added to the experimental wells (10 μl/well at 10× assay concentration) and the cells are then incubated (5% CO2, 37° C.) for 48 h.\n(§4) Day 2, Reagent Preparation and Luciferase Assay: The Bright-Glo Luciferase Assay Buffer (Promega) is thawed and equilibrated to room temperature prior to use. The lyophilized Bright-Glo Luciferase Assay Substrate is equilibrated to room temperature prior to use. 10 ml of Bright-Glo Luciferase Assay Buffer is transferred to 1 vial of Bright-Glo Luciferase Assay Substrate bottle and mixed by gently with a Vortex. 100 ul of Bright-Glo Luciferase Assay reagent (Bright-Glo Luciferase Assay Buffer+Bright-Glo Luciferase Assay Substrate Mixture) is added to each well. The well contents are mixed for 5 min. on an orbital shaker at room temperature to induce cell lysis and the luminescence is then measured using a luminometer. The data is analyzed and IC50s are determined using GraphPad Prism 4 software. Hits validated in the Replicon Luciferase assay have IC50s<8.0 μM and show <30% inhibition of Cell Viability at a compound concentration of 100 μM (Cell Titer Glow Assay, cell viability assay conditions identical to HCV Replicon Luciferase Assay conditions).", "units": {"IC50": "µM"}, "values": [{"smiles": "Cn1cc(C#CC(C)(C)C)c(-c2cc(C#Cc3ccc(Cl)cc3)ccc2O)n1", "note": "[VQ_34394]", "IC50": 4.8}, {"smiles": "Cn1cc(C#CC(C)(C)C)c(-c2cc(C#CCC3CCCCC3)ccc2O)n1", "note": "[VQ_34395]", "IC50": 3.7}, {"smiles": "Cn1cc(C#CC2CC2)c(-c2cc(Br)ccc2O)n1", "note": "[VQ_34432]", "IC50": 11.5}, {"smiles": "Cn1cc(C#CC(C)(C)C)c(-c2cc(-c3cccc(Cl)c3)ccc2O)n1", "note": "[VQ_35543]", "IC50": 10.1}, {"smiles": "Cn1cc(C#CC(C)(C)C)c(-c2cc(NC(=O)c3ccc(Cl)c(Cl)c3)ccc2O)n1", "note": "[VQ_35556]", "IC50": 9.3}, {"smiles": "Cn1cc(C#CC(C)(C)C)c(-c2cc(NC(=O)c3cccc(Cl)c3)ccc2O)n1", "note": "[VQ_35559]", "IC50": 9.5}, {"smiles": "CC(=O)c1ccc(N2CCN(C(=O)c3c(C#CC(C)(C)C)c(-c4cc(Cl)ccc4O)nn3C)CC2)cc1", "note": "[VQ_36649]", "IC50": 9.7}, {"smiles": "C=CCNc1ccc([N+](=O)[O-])cc1-c1nn(C)cc1C#CC(C)(C)C", "note": "[VQ_36658]", "IC50": 0.04}]}, {"system": "HCV RNA (HCV Replicon) in Huh-Luc-Neo cells", "assay": "HCV Replicon RNA Assay (Taqman quantitative PCR)", "type": "cell-based", "conditions": "Hepatitis C virus, 48 h, 2 compound treatments over 48 h, no unit printed in table (b307 gives IC50s in μM)", "protocol": "as §1, §2\nas §3, with “C.).” for “C.) for 48 h.”\nDay 1, Media Change and Compound Treatment: 24 hours after the initial compound treatment the cell culture media is aspirated from the wells and fresh Growth Medium is added (DMEM phenol red free+PS+2 mM glutamine; 100 μl/well). The compounds to be tested are then added to the appropriate experimental wells (10 μl/well at 10× assay concentration) and the cells are then incubated (5% CO2, 37° C.) for an additional 24 hrs.\nDay 2, RNA Isolation and cDNA Synthesis: The cells are washed with 1× Phosphate Buffered Saline (PBS) once.\n(§5) Day 3, Quantitative PCR Based Measurement of HCV RNA (Taqman Assay): Quantitative PCR analysis to measure HCV RNA expression from cDNA synthesized on Day 2 is performed using the ABI 9700 HT Sequence Detection System (Applied Biosystems) as previously described (Lohman et al, Science 285, 110-113, 1999). The data is analyzed and IC50s are determined using GraphPad Prism 4 software. Hits validated in the Replicon RNA Assay have IC50s<8.0 μM and show <30% inhibition of Cell Viability at a compound concentration of 50 μM (Cell Titer Glow Assay, cell viability assay conditions identical to HCV Replicon RNA Assay conditions).", "units": {"IC50": "µM"}, "values": [{"smiles": "Cn1cc(C#CC(C)(C)C)c(-c2cc(C#Cc3ccc(Cl)cc3)ccc2O)n1", "note": "[VQ_34394]", "IC50": 1.07}, {"smiles": "Cn1cc(C#CC(C)(C)C)c(-c2cc(C#CCC3CCCCC3)ccc2O)n1", "note": "[VQ_34395]", "IC50": 0.68}, {"smiles": "Cn1cc(C#CC2CC2)c(-c2cc(Br)ccc2O)n1", "note": "[VQ_34432]", "IC50": 0.82}, {"smiles": "Cn1cc(C#CC(C)(C)C)c(-c2cc(-c3cccc(Cl)c3)ccc2O)n1", "note": "[VQ_35543]", "IC50": 2.16}, {"smiles": "Cn1cc(C#CC(C)(C)C)c(-c2cc(NC(=O)c3ccc(Cl)c(Cl)c3)ccc2O)n1", "note": "[VQ_35556]", "IC50": 0.99}, {"smiles": "Cn1cc(C#CC(C)(C)C)c(-c2cc(NC(=O)c3cccc(Cl)c3)ccc2O)n1", "note": "[VQ_35559]", "IC50": 1.98}, {"smiles": "CC(=O)c1ccc(N2CCN(C(=O)c3c(C#CC(C)(C)C)c(-c4cc(Cl)ccc4O)nn3C)CC2)cc1", "note": "[VQ_36649]", "IC50": 0.4}, {"smiles": "C=CCNc1ccc([N+](=O)[O-])cc1-c1nn(C)cc1C#CC(C)(C)C", "note": "[VQ_36658]", "IC50": 0.4}]}, {"system": "Huh-Luc-Neo cells", "assay": "Cell Titer-Glo Cell Viability Assay", "type": "cell-based, human", "conditions": "inhibition of cell viability at 50 μM, 2 doses, conditions identical to HCV Replicon RNA Assay", "protocol": "as §4, §5\n(§6) Day 0, Cell Seeding and Compound Treatment: Huh-Luc-Neo Cells are seeded at 25,000/well in an opaque-walled 96 plate with Growth Medium (DMEM phenol red free+PS+2 mM glutamine; 100 ul/well).\n(§7) Day 2, Reagent Preparation and Assay: The CellTiter-Glo Buffer is thawed and equilibrated to room temperature prior to use. The lyophilized CellTiter-Glo Substrate is equilibrated to room temperature prior to use. 10 ml of CellTiter-Glo Buffer is transferred to 1 vial of CellTiter-Glo Substrate and mixed by gently with a Vortex. 100 μl of CellTiter-Glo Assay reagent (CellTiter-Glo Buffer+CellTiter-Glo Substrate Mixture) is added to each well. The well contents are mixed for 5 min. on an orbital shaker at room temperature to induce cell lysis and the luminescence is then measured using a luminometer.", "units": {"Toxicity % Inhibition at 50 μM (2 doses)": "%"}, "values": [{"smiles": "Cn1cc(C#CC(C)(C)C)c(-c2cc(C#Cc3ccc(Cl)cc3)ccc2O)n1", "note": "[VQ_34394]", "Toxicity % Inhibition at 50 μM (2 doses)": 24.5}, {"smiles": "Cn1cc(C#CC(C)(C)C)c(-c2cc(C#CCC3CCCCC3)ccc2O)n1", "note": "[VQ_34395]", "Toxicity % Inhibition at 50 μM (2 doses)": 23.6}, {"smiles": "Cn1cc(C#CC2CC2)c(-c2cc(Br)ccc2O)n1", "note": "[VQ_34432]", "Toxicity % Inhibition at 50 μM (2 doses)": 8.2}, {"smiles": "Cn1cc(C#CC(C)(C)C)c(-c2cc(-c3cccc(Cl)c3)ccc2O)n1", "note": "[VQ_35543]", "Toxicity % Inhibition at 50 μM (2 doses)": 8.2}, {"smiles": "Cn1cc(C#CC(C)(C)C)c(-c2cc(NC(=O)c3ccc(Cl)c(Cl)c3)ccc2O)n1", "note": "[VQ_35556]", "Toxicity % Inhibition at 50 μM (2 doses)": 13.7}, {"smiles": "Cn1cc(C#CC(C)(C)C)c(-c2cc(NC(=O)c3cccc(Cl)c3)ccc2O)n1", "note": "[VQ_35559]", "Toxicity % Inhibition at 50 μM (2 doses)": 15.8}, {"smiles": "CC(=O)c1ccc(N2CCN(C(=O)c3c(C#CC(C)(C)C)c(-c4cc(Cl)ccc4O)nn3C)CC2)cc1", "note": "[VQ_36649]", "Toxicity % Inhibition at 50 μM (2 doses)": 12.1}, {"smiles": "C=CCNc1ccc([N+](=O)[O-])cc1-c1nn(C)cc1C#CC(C)(C)C", "note": "[VQ_36658]", "Toxicity % Inhibition at 50 μM (2 doses)": 38.8}]}, {"system": "Huh-Luc-Neo cells", "assay": "Cell Titer-Glo Cell Viability Assay", "type": "cell-based, human", "conditions": "inhibition of cell viability at 100 μM, 1 dose, conditions identical to HCV Replicon Luciferase Assay (48 h)", "protocol": "as §4, §5, §6, §7", "units": {"Toxicity % Inhibition at 100 μM (1 dose)": "%"}, "values": [{"smiles": "Cn1cc(C#CC(C)(C)C)c(-c2cc(C#Cc3ccc(Cl)cc3)ccc2O)n1", "note": "[VQ_34394]", "Toxicity % Inhibition at 100 μM (1 dose)": 31.8}, {"smiles": "Cn1cc(C#CC(C)(C)C)c(-c2cc(C#CCC3CCCCC3)ccc2O)n1", "note": "[VQ_34395]", "Toxicity % Inhibition at 100 μM (1 dose)": 45.4}, {"smiles": "Cn1cc(C#CC2CC2)c(-c2cc(Br)ccc2O)n1", "note": "[VQ_34432]", "Toxicity % Inhibition at 100 μM (1 dose)": 45.5}, {"smiles": "Cn1cc(C#CC(C)(C)C)c(-c2cc(-c3cccc(Cl)c3)ccc2O)n1", "note": "[VQ_35543]", "Toxicity % Inhibition at 100 μM (1 dose)": 25.3}, {"smiles": "Cn1cc(C#CC(C)(C)C)c(-c2cc(NC(=O)c3ccc(Cl)c(Cl)c3)ccc2O)n1", "note": "[VQ_35556]", "Toxicity % Inhibition at 100 μM (1 dose)": 28.8}, {"smiles": "Cn1cc(C#CC(C)(C)C)c(-c2cc(NC(=O)c3cccc(Cl)c3)ccc2O)n1", "note": "[VQ_35559]", "Toxicity % Inhibition at 100 μM (1 dose)": 24.2}, {"smiles": "CC(=O)c1ccc(N2CCN(C(=O)c3c(C#CC(C)(C)C)c(-c4cc(Cl)ccc4O)nn3C)CC2)cc1", "note": "[VQ_36649]", "Toxicity % Inhibition at 100 μM (1 dose)": 7.3}, {"smiles": "C=CCNc1ccc([N+](=O)[O-])cc1-c1nn(C)cc1C#CC(C)(C)C", "note": "[VQ_36658]", "Toxicity % Inhibition at 100 μM (1 dose)": 21.8}]}]}
